Experimental data as given in patent US11053234B2 (GlaxoSmithKline Intellectual Property Development Limited, priority 2016, dated 2021).
Where a name gives a salt, the structure may show the parent alone.

Biological target: T1, haematopoietic prostaglandin D synthase (H-PGDS) (Homo sapiens, UniProt O60760)
T1 construct: Full length human H-PGDS cDNA (Invitrogen Ultimate ORF 10H13026) was amplified by PCR; 6-His (N); TEV protease cleavage site (N); made in house; host or cells: E. coli BL21 (DE3*), vector pET22b+
Assay: H-PGDS RapidFire high throughput mass spectrometry assay (conversion of PGH2 to PGD2)
Format: biochemical
Conditions: 10 nM H-PGDS, PGH2 formed in situ by COX-2 from arachidonic acid; read-out: Potency Range (mean pIC50) (converted)
Outline: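 PGH2 substrate generated in situ by COX-2 (full-length human, FLAG-tagged, Sf9-expressed) from arachidonic acid at ˜10 μM, then converted by full-length human His-tagged H-PGDS (E. coli-expressed). RapidFire SPE–triple quadrupole MS measured PGD2 against PGF2α as substrate surrogate to give percent conversion.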

T1 sequence (O60760 whole entry): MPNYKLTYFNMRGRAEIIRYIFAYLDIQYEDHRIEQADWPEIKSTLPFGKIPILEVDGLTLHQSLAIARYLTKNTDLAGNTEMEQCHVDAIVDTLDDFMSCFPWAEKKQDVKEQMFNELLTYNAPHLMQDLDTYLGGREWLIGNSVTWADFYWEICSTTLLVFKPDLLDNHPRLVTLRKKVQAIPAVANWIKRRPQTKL

Question: Which IC50 does the source give for CC(C)(O)[C@H]1CC[C@H](NC(=O)[C@H]2C[C@H](Nc3cccc4cccnc34)C2)CC1 [Example 222, (trans)-N-((trans)-4-(2-Hydroxypropan-2-yl)cyclohexyl)-3-(quinolin-8-ylamino)cyclobutanecarboxamide] here?
Answer: The IC50 was 100 to 1000 nM.

Question: How did the IC50 turn out when CC(C)(O)[C@H]1C[C@H](NC(=O)[C@H]2C[C@H](Oc3cccc4cccnc34)C2)C1 [Example 223, (trans)-N-((trans)-3-(2-Hydroxypropan-2-yl)cyclobutyl)-3-(quinolin-8-yloxy)cyclobutanecarboxamide] was run?
Answer: Its IC50 is 100 to 1000 nM.

Question: Which IC50 does the source give for O=C(NC1CCN(CC(F)(F)F)CC1)[C@H]1C[C@H](Oc2cccc3cccnc23)C1 [Example 224, (trans)-3-(Quinolin-8-yloxy)-N-(1-(2,2,2-trifluoroethyl)piperidin-4-yl)cyclobutanecarboxamide] here?
Answer: Its IC50 is 10 to 79.4 nM.

Question: With CC(C)(O)[C@H]1CC[C@H](NC(=O)[C@H]2C[C@H](Oc3cccc4cccnc34)C2)CC1 [Example 225, N-((trans)-4-(2-Hydroxypropan-2-yl)cyclohexyl)-3-(quinolin-8-yloxy)cyclobutanecarboxamide] as the compound, how does the IC50 read?
Answer: The IC50 was 10 to 79.4 nM.

Question: How did the IC50 turn out when CC(C)(O)[C@H]1CC[C@H](NC(=O)N2CC(Oc3csc4cccnc34)C2)CC1 [Example 226, N-((trans)-4-(2-Hydroxypropan-2-yl)cyclohexyl)-3-(thieno[3,2-b]pyridin-3-yloxy)azetidine-1-carboxamide] was run?
Answer: Its IC50 is 10 to 79.4 nM.

Question: For CC(C)(O)[C@H]1CC[C@H](NC(=O)[C@H]2C[C@H](Oc3cc(F)cc4ccoc34)C2)CC1 [Example 227, (trans)-3-((5-Fluorobenzofuran-7-yl)oxy)-N-((trans)-4-(2-hydroxypropan-2-yl)cyclohexyl)cyclobutanecarboxamide], which IC50 is on record?
Answer: The IC50 was 10 to 79.4 nM.

Question: CC(C)(O)[C@H]1CC[C@H](NC(=O)[C@H]2C[C@H](Oc3cccc(Br)c3)C2)CC1 [Example 228, (trans)-3-(3-Bromophenoxy)-N-((trans)-4-(2-hydroxypropan-2-yl)cyclohexyl)cyclobutanecarboxamide] was tested. Which IC50 did it give?
Answer: The IC50 was 100 to 1000 nM.

Question: How did the IC50 turn out when CC(C)(O)[C@H]1CC[C@H](NC(=O)[C@H]2C[C@H](Oc3cc(F)ccc3F)C2)CC1 [Example 229, (trans)-3-(2,5-Difluorophenoxy)-N-((trans)-4-(2-hydroxypropan-2-yl)cyclohexyl)cyclobutanecarboxamide] was run?
Answer: Its IC50 is 100 to 1000 nM.

Question: Which IC50 does the source give for CC(C)(O)[C@H]1CC[C@H](NC(=O)[C@H]2C[C@H](Oc3cc(F)ccc3Cl)C2)CC1 [Example 230, (trans)-3-(2-Chloro-5-fluorophenoxy)-N-((trans)-4-(2-hydroxypropan-2-yl)cyclohexyl)cyclobutanecarboxamide] here?
Answer: Its IC50 is 100 to 1000 nM.

Question: Cc1ccc(N2CC(NC(=O)[C@H]3C[C@H](Oc4cc(F)cc5scnc45)C3)C2)nc1 [Example 231, (trans)-3-((6-Fluorobenzo[d]thiazol-4-yl)oxy)-N-(1-(5-methylpyridin-2-yl)azetidin-3-yl)cyclobutanecarboxamide] was tested. Which IC50 did it give?
Answer: Its IC50 is 10 to 79.4 nM.

Question: With Cc1ccc(N2CC(NC(=O)N3CC(Oc4cc(F)cc5scnc45)C3)C2)nc1 [Example 232, 3-((6-Fluorobenzo[d]thiazol-4-yl)oxy)-N-(1-(5-methylpyridin-2-yl)azetidin-3-yl)azetidine-1-carboxamide] as the compound, how does the IC50 read?
Answer: The IC50 was 10 to 79.4 nM.

Question: How did the IC50 turn out when CCC(=O)C1CC2(CC(NC(=O)[C@H]3C[C@H](Oc4cc(F)cc5scnc45)C3)C2)C1 (stereo partly drawn) [Example 233, (trans)-3-((6-Fluorobenzo[d]thiazol-4-yl)oxy)-N-(6-propionylspiro[3.31]heptan-2-yl)cyclobutanecarboxamide] was run?
Answer: Its IC50 is 10 to 79.4 nM.

Question: With CCOCCNC(=O)c1ccc(N2CC(NC(=O)[C@H]3C[C@H](Oc4cc(F)cc5scnc45)C3)C2)nn1 [Example 234, N-(2-Ethoxyethyl)-6-(3-((trans)-3-((6-fluorobenzo[d]thiazol-4-yl)oxy)cyclobutanecarboxamido)azetidin-1-yl)pyridazine-3-carboxamide] as the compound, how does the IC50 read?
Answer: The IC50 was 10 to 79.4 nM.

Question: With O=C(NC1CN(c2cnccn2)C1)[C@H]1C[C@H](Oc2cc(F)cc3scnc23)C1 [Example 235, (trans)-3-((6-Fluorobenzo[d]thiazol-4-yl)oxy)-N-(1-(pyrazin-2-yl)azetidin-3-yl)cyclobutanecarboxamide] as the compound, how does the IC50 read?
Answer: Its IC50 is 10 to 79.4 nM.

Question: Which IC50 does the source give for CC1(NC(=O)[C@H]2C[C@H](Oc3cc(F)cc4scnc34)C2)CN(c2cccnn2)C1 [Example 237, (trans)-3-((6-Fluorobenzo[d]thiazol-4-yl)oxy)-N-(3-methyl-1-(pyridazin-3-yl)azetidin-3-yl)cyclobutanecarboxamide] here?
Answer: Its IC50 is 100 to 1000 nM.

Question: CC1(NC(=O)[C@H]2C[C@H](Oc3cc(F)cc4scnc34)C2)CN(c2ncccn2)C1 [Example 238, (trans)-3-((6-Fluorobenzo[d]thiazol-4-yl)oxy)-N-(3-methyl-1-(pyrimidin-2-yl)azetidin-3-yl)cyclobutanecarboxamide] was tested. Which IC50 did it give?
Answer: The IC50 was 100 to 1000 nM.

Question: How did the IC50 turn out when Cc1ccc(N2CC(NC(=O)[C@H]3C[C@H](Oc4cccc5scnc45)C3)C2)nc1 [Example 239, (trans)-3-(Benzo[d]thiazol-4-yloxy)-N-(1-(5-methylpyridin-2-yl)azetidin-3-yl)cyclobutanecarboxamide] was run?
Answer: The IC50 was 10 to 79.4 nM.

Question: For Cc1cnnc(N2CC(NC(=O)[C@H]3C[C@H](Oc4cccc5scnc45)C3)C2)c1 [Example 241, (trans)-3-(Benzo[d]thiazol-4-yloxy)-N-(1-(5-methylpyridazin-3-yl)azetidin-3-yl)cyclobutanecarboxamide, trifluoroacetic acid salt], which IC50 is on record?
Answer: Its IC50 is 10 to 79.4 nM.

Question: With CS(=O)(=O)c1ccc(NC(=O)[C@H]2C[C@H](Oc3cccc4scnc34)C2)cc1 [Example 242, (trans)-3-(Benzo[d]thiazol-4-yloxy)-N-(4-(methylsulfonyl)phenyl)cyclobutanecarboxamide] as the compound, how does the IC50 read?
Answer: Its IC50 is 10 to 79.4 nM.

Question: O=C(Nc1ccc(N2CCOCC2)cc1)[C@H]1C[C@H](Oc2cccc3scnc23)C1 [Example 243, (trans)-3-(Benzo[d]thiazol-4-yloxy)-N-(4-morpholinophenyl)cyclobutanecarboxamide] was tested. Which IC50 did it give?
Answer: Its IC50 is 10 to 79.4 nM.

Question: For Cc1ccc(N2CC(NC(=O)N3CC(Oc4cccc5scnc45)C3)C2)nc1 [Example 244], which IC50 is on record?
Answer: Its IC50 is 10 to 79.4 nM.

Question: O=C(NC1CN(c2cccnn2)C1)[C@H]1C[C@H](Oc2cccc3scnc23)C1 [Example 245, (trans)-3-(Benzo[d]thiazol-4-yloxy)-N-(1-(pyridazin-3-yl)azetidin-3-yl)cyclobutanecarboxamide] was tested. Which IC50 did it give?
Answer: Its IC50 is 10 to 79.4 nM.

Question: For O=C(NC1CN(c2cnccn2)C1)[C@H]1C[C@H](Oc2cccc3scnc23)C1 [Example 246, (trans)-3-(Benzo[d]thiazol-4-yloxy)-N-(1-(pyrazin-2-yl)azetidin-3-yl)cyclobutanecarboxamide], which IC50 is on record?
Answer: The IC50 was 10 to 79.4 nM.

Question: How did the IC50 turn out when CS(=O)(=O)c1ccc(NC(=O)[C@H]2C[C@H](Oc3cccc4scnc34)C2)c(F)c1 [Example 247, (trans)-3-(Benzo[d]thiazol-4-yloxy)-N-(2-fluoro-4-(methylsulfonyl)phenyl)cyclobutanecarboxamide] was run?
Answer: The IC50 was 10 to 79.4 nM.

Question: For O=C(Nc1cccc(N2CCOCC2)c1)[C@H]1C[C@H](Oc2cccc3scnc23)C1 [Example 248, (trans)-3-(Benzo[d]thiazol-4-yloxy)-N-(3-morpholinophenyl)cyclobutanecarboxamide], which IC50 is on record?
Answer: The IC50 was 10 to 79.4 nM.

Question: How did the IC50 turn out when Cn1nccc1NC(=O)[C@H]1C[C@H](Oc2cccc3scnc23)C1 [Example 249, (trans)-3-(Benzo[d]thiazol-4-yloxy)-N-(1-methyl-1H-pyrazol-5-yl)cyclobutanecarboxamide] was run?
Answer: The IC50 was 100 to 1000 nM.

Question: How did the IC50 turn out when O=C(NCc1cccs1)[C@H]1C[C@H](Oc2cccc3scnc23)C1 [Example 250] was run?
Answer: Its IC50 is 100 to 1000 nM.

Question: CC1(NC(=O)N2CC(Oc3cccc4scnc34)C2)CN(c2ncccn2)C1 [Example 251] was tested. Which IC50 did it give?
Answer: Its IC50 is 100 to 1000 nM.

Question: How did the IC50 turn out when O=C(NCc1ccsc1)[C@H]1C[C@H](Oc2cccc3scnc23)C1 [Example 252] was run?
Answer: The IC50 was 100 to 1000 nM.

Question: How did the IC50 turn out when O=C(NC1CCCCC1)[C@H]1C[C@H](Oc2cccc3scnc23)C1 [Example 253] was run?
Answer: The IC50 was 100 to 1000 nM.

Question: Which IC50 does the source give for Cc1ccc(CNC(=O)[C@H]2C[C@H](Oc3cccc4scnc34)C2)o1 [Example 255, (trans)-3-(Benzo[d]thiazol-4-yloxy)-N-((5-methylfuran-2-yl)methyl)cyclobutanecarboxamide] here?
Answer: Its IC50 is 100 to 1000 nM.

Question: Which IC50 does the source give for CC(C)(O)[C@H]1CC[C@H](NC(=O)[C@H]2C[C@H](Oc3cc(Cl)ccc3Cl)C2)CC1 [Example 257, (trans)-3-(2,5-Dichlorophenoxy)-N-((trans)-4-(2-hydroxypropan-2-yl)cyclohexyl)cyclobutanecarboxamide] here?
Answer: Its IC50 is 100 to 1000 nM.

Question: CC(C)(O)[C@H]1CC[C@H](NC(=O)N2CC(Oc3ccccc3OC(F)(F)F)C2)CC1 [Example 258] was tested. Which IC50 did it give?
Answer: Its IC50 is 100 to 1000 nM.

Question: For CC(C)(O)[C@H]1CC[C@H](NC(=O)[C@H]2C[C@H](Oc3ccccc3OC(F)(F)F)C2)CC1 [Example 259, (trans)-N-((trans)-4-(2-Hydroxypropan-2-yl)cyclohexyl)-3-(2-(trifluoromethoxy)phenoxy)cyclobutanecarboxamide], which IC50 is on record?
Answer: Its IC50 is 100 to 1000 nM.

Question: How did the IC50 turn out when CC(C)(O)[C@H]1CC[C@H](NC(=O)N2CC(Oc3cccc4ccoc34)C2)CC1 [Example 260, 3-(Benzofuran-7-yloxy)-N-((trans)-4-(2-hydroxypropan-2-yl)cyclohexyl)azetidine-1-carboxamide] was run?
Answer: Its IC50 is 10 to 79.4 nM.

Question: With N#Cc1cnc(NC(=O)[C@H]2C[C@H](Oc3cccc4ccoc34)C2)s1 [Example 261, (trans)-3-(Benzofuran-7-yloxy)-N-(5-cyanothiazol-2-yl)cyclobutanecarboxamide] as the compound, how does the IC50 read?
Answer: Its IC50 is 10 to 79.4 nM.

Question: CCOC(=O)Cc1csc(NC(=O)[C@H]2C[C@H](Oc3cccc4ccoc34)C2)n1 [Example 262, Ethyl 2-(2-((trans)-3-(benzofuran-7-yloxy)cyclobutanecarboxamido)thiazol-4-yl)acetate] was tested. Which IC50 did it give?
Answer: The IC50 was 10 to 79.4 nM.

Question: Which IC50 does the source give for CCOC(=O)Cc1nnc(NC(=O)[C@H]2C[C@H](Oc3cccc4ccoc34)C2)s1 [Example 263, Ethyl 2-(5-((trans)-3-(benzofuran-7-yloxy)cyclobutanecarboxamido)-1,3,4-thiadiazol-2-yl)acetate] here?
Answer: The IC50 was 10 to 79.4 nM.
